Laboratory results from patent US4229443A, “Derivatives of penicillanic acid” (Leo Pharmaceutical Products, Ltd. A/S, priority 1976, dated 1980).
Converted amounts (≈) assume the structure as drawn. Counter-ions that a name gives are not always drawn.

Experiments:
Format in all cases: cell-based
[1] = system: Enterobacter cloacae P 99; experiment: Antibacterial activity, 50% inhibition of growth, Enterobacter cloacae P 99; settings: P99, read-out: IC50 (concentration required for a 50% inhibition of growth)
Excerpt: (§1) In the table below the antibacterial activity of the compound of Example 1, the 6-[4'-(3"-aminopropyl)-1'-piperidyl-methyleneamino]penicillanic acid hydrochloride, in the table called EB 686, is compared to that of the known compounds Ampicillin and Mecillinam (a compound of the above mentioned British Pat. No. 1,293,590).
(§2) *IC50 means the concentration required for a 50% inhibition of […]

[2] = system: Klebsiella pneumoniae AT CC 10273; experiment: Antibacterial activity, 50% inhibition of growth, Klebsiella pneumoniae AT CC 10273; settings: ATCC10273, read-out: IC50 (concentration required for a 50% inhibition of growth)
Excerpt: as §1, §2

E.coli W3110 (RTEM) = experiment: Antibacterial activity, 50% inhibition of growth, E.coli W3110 (RTEM); settings: Escherichia coli, read-out: IC50 (concentration required for a 50% inhibition of growth)
Excerpt: as §1, §2

E.coli HA 2 Leo strain = experiment: Antibacterial activity, 50% inhibition of growth, E.coli HA 2 Leo strain; settings: Escherichia coli, HA2LEOSTRAIN, read-out: IC50 (concentration required for a 50% inhibition of growth)
Excerpt: as §1, §2

[3] = system: Pseudomonas aeruginosa PS 18s; experiment: Antibacterial activity, 50% inhibition of growth, Pseudomonas aeruginosa PS 18s; settings: PS18S, read-out: IC50 (concentration required for a 50% inhibition of growth)
Excerpt: as §1, §2

[4] = system: Pseudomonas aeruginosa BA 2 Leo strain; experiment: Antibacterial activity, 50% inhibition of growth, Pseudomonas aeruginosa BA 2 Leo strain; settings: BA2LEOSTRAIN, read-out: IC50 (concentration required for a 50% inhibition of growth)
Excerpt: as §1, §2

[5] = system: Salmonella typhimurium NCTC 5710; experiment: Antibacterial activity, 50% inhibition of growth, Salmonella typhimurium NCTC 5710; settings: Salmonella enterica, read-out: IC50 (concentration required for a 50% inhibition of growth)
Excerpt: as §1, §2

[6] = system: Salmonella cholerasuis NCTC 5735; experiment: Antibacterial activity, 50% inhibition of growth, Salmonella cholerasuis NCTC 5735; settings: NCTC5735, read-out: IC50 (concentration required for a 50% inhibition of growth)
Excerpt: as §1, §2

Row | Compound | IC50 [1] [mg/L] | IC50 [2] [mg/L] | IC50 (E.coli W3110 (RTEM)) [mg/L] | IC50 (E.coli HA 2 Leo strain) [mg/L] | IC50 [3] [mg/L] | IC50 [4] [mg/L] | IC50 [5] [mg/L] | IC50 [6] [mg/L]
1 | CC1(C)S[C@@H]2[C@H](NC(=O)[C@H](N)c3ccccc3)C(=O)N2[C@H]1C(=O)O [Ampicillin] | > 100 | 79 (≈ 226 µM) | > 100 | 1.3 (≈ 3.72 µM) | 50 (≈ 143 µM) | > 100 | 0.4 (≈ 1.14 µM) | 0.25 (≈ 0.715 µM)
2 | CC1(C)S[C@@H]2[C@H](N=CN3CCC(CCCN)CC3)C(=O)N2[C@H]1C(=O)O [EB 686, 6-[4'-(3"-aminopropyl)-1'-piperidyl-methyleneamino]-penicillanic acid monohydrochloride] | 0.02 | 0.04 | 0.5 | 0.016 | 5 | 16 | 0.016 | 0.0063
3 | CC1(C)S[C@@H]2[C@H](N=CN3CCC(CCCN=[N+]=[N-])CC3)C(=O)N2[C@H]1C(=O)O [Example 1D, 6-[4'-(3"-azidopropyl)-1'-piperidyl-methyleneamino]-penicillanic acid] | – | – | – | 0.04 (≈ 0.101 µM) | – | – | 0.5 (≈ 1.27 µM) | –
4 | CC1(C)S[C@@H]2[C@H](N=CN3CCC(CN=[N+]=[N-])CC3)C(=O)N2[C@H]1C(=O)O [Example 2D, 6-[4'-azidomethyl-1'-piperidyl-methyleneamino]-penicillanic acid] | – | – | – | 0.05 (≈ 0.136 µM) | – | – | 0.2 (≈ 0.546 µM) | –
5 | CC(C)(C)C(=O)OCOC(=O)[C@@H]1N2C(=O)[C@@H](N=CN3CCCC(C(CN)CN)CC3)[C@H]2SC1(C)C (stereo partly shown) [Example 28F, Pivaloyloxymethyl 6-[(4'-(1",3"-diaminopropyl-2")-hexahydro-1'H-azepin-1'-yl)-methyleneamino]-penicillanate, trihydrochloride] | – | – | – | 0.05 | – | 20 | 0.05 | –
6 | CC1(C)S[C@@H]2[C@H](/N=C/N3CCCCCC3)C(=O)N2[C@H]1C(=O)O [Mecillinam] | 0.1 (≈ 0.307 µM) | ~1 (≈ 3.07 µM) | 2 (≈ 6.15 µM) | 0.016 (≈ 0.0492 µM) | > 100 | > 100 | 0.05 (≈ 0.154 µM) | 0.05 (≈ 0.154 µM)
